ChEMBL document CHEMBL5131468, “Systematic comparison of activity and mechanism of antimicrobial peptides against nosocomial pathogens” (Eur J Med Chem, 2022)
≈ marks a conversion by molar mass, not a printed value. Calls of active or inactive are those of the source. The calls are words filed in the database; no cut-off is given here. Peptide text beside a SMILES is read from it.

Assays:
Enterococcus faecalis [1] = assay: Antibacterial activity against Enterococcus faecalis ATCC 29212 assessed as inhibition of bacterial growth incubated for 90 mins by serial dilution assay; assay type: functional
Cell membrane [2] = assay: Induction of membrane depolarization in Staphylococcus aureus ATCC 29213 at 0.25 times MIC after 60 mins by DiOC23 dye based based flow cytometry; assay type: subcellular
Cell membrane [3] = assay: Induction of outer membrane permeabilization in Escherichia coli ATCC 25922 assessed as increase in NPN fluorescence intensity incubated for 15 mins by NPN-dye based fluorescence analysis; assay type: subcellular
Cell membrane [4] = assay: Induction of membrane depolarization in Escherichia coli ATCC 25922 at 0.5 times MIC after 60 mins by DiOC23 dye based based flow cytometry relative to control
HEK293 [5] = assay: Cytotoxicity against human HEK293 cells assessed as decrease in live cells upto 125 ug/ml incubated for 2 hrs by MTS assay; assay type: toxicity, cell-based; settings: hek293, 2 h, dose < 125 µg/ml
Cell membrane [6] = assay: Induction of membrane depolarization in Salmonella enterica serovar typhimurium SL1344 at 0.5 times MIC after 60 mins by DiOC23 dye based based flow cytometry relative to control; settings: Salmonella enterica subsp. enterica serovar Typhimurium
Salmonella typhimurium [7] = assay: Antibacterial activity against Salmonella enterica serovar typhimurium SL1344 assessed as inhibition of bacterial growth incubated for 90 mins by serial dilution assay; assay type: functional, Salmonella enterica subsp. enterica serovar Typhimurium
Cell membrane [8] = assay: Induction of membrane depolarization in Escherichia coli ATCC 25922 at 0.25 to 0.5 times MIC after 60 mins by DiOC23 dye based based flow cytometry; assay type: subcellular
Staphylococcus aureus [9] = assay: Antibacterial activity against Methicillin resistant Staphylococcus aureus ATCC 33591 assessed as inhibition of bacterial growth incubated for 90 mins by serial dilution assay; assay type: functional
Escherichia coli [10] = assay: Bactericidal activity against Escherichia coli BAA3051 incubated for 90 mins by serial dilution assay; assay type: functional
Staphylococcus aureus [11] = assay: Bactericidal activity against Staphylococcus aureus ATCC 29213 incubated for 90 mins by serial dilution assay; assay type: functional
Cell membrane [12] = assay: Induction of outer membrane permeabilization in Salmonella enterica serovar typhimurium SL1344 assessed as increase in NPN fluorescence intensity incubated for 15 mins by NPN-dye based fluorescence analysis; assay type: subcellular; settings: Salmonella enterica subsp. enterica serovar Typhimurium
HEK293 [13] = assay: Cytotoxicity against human HEK293 cells assessed as decrease in live cells at 250 ug/ml incubated for 2 hrs by MTS assay; assay type: toxicity, cell-based; settings: hek293, 2 h, dose 250 µg/ml
Staphylococcus aureus [14] = assay: Induction of morphological changes in Staphylococcus aureus ATCC 29213 at 0.5 to 2 times MIC incubated for 90 mins by Helium ion microscopy; assay type: functional, organism-based
Cell membrane [15] = assay: Induction of membrane depolarization in Enterococcus faecalis ATCC 29212 at 0.25 times MIC after 60 mins by DiOC23 dye based based flow cytometry; assay type: subcellular
Escherichia coli [16] = assay: Antibacterial activity against Escherichia coli ATCC 25922 assessed as inhibition of bacterial growth incubated for 90 mins by serial dilution assay; assay type: functional
Escherichia coli [17] = assay: Antibacterial activity against Escherichia coli BAA3051 assessed as inhibition of bacterial growth incubated for 90 mins by serial dilution assay; assay type: functional
Staphylococcus aureus [18] = assay: Antibacterial activity against Staphylococcus aureus ATCC 29213 assessed as inhibition of bacterial growth incubated for 90 mins by serial dilution assay; assay type: functional
Cell membrane [19] = assay: Induction of inner membrane damage in Escherichia coli ATCC 25922 assessed disruption of membrane integrity at 0.5 to 256 ug/ml and measured after 90 mins by propidium iodide staining based flow cytometry; assay type: subcellular; settings: dose 0.5-256 µg/ml
Staphylococcus aureus [20] = assay: Bactericidal activity against Methicillin resistant Staphylococcus aureus ATCC 33591 incubated for 90 mins by serial dilution assay; assay type: functional
Cell membrane [21] = assay: Induction of membrane depolarization in Enterococcus faecalis ATCC 29212 at 0.5 times MIC after 60 mins by DiOC23 dye based based flow cytometry relative to control
Cell membrane [22] = assay: Induction of outer membrane permeabilization in Escherichia coli BAA3051 assessed as increase in NPN fluorescence intensity incubated for 15 mins by NPN-dye based fluorescence analysis
Cell membrane [23] = assay: Induction of membrane depolarization in Staphylococcus aureus ATCC 29213 at 0.5 times MIC after 60 mins by DiOC23 dye based based flow cytometry relative to control; assay type: subcellular
Escherichia coli [24] = assay: Bactericidal activity against Escherichia coli ATCC 25922 incubated for 90 mins by serial dilution assay; assay type: functional
Cell membrane [25] = assay: Induction of membrane depolarization in Salmonella enterica serovar typhimurium SL1344 at 0.25 to 0.5 times MIC after 60 mins by DiOC23 dye based based flow cytometry; assay type: subcellular; settings: Salmonella enterica subsp. enterica serovar Typhimurium
Enterococcus faecalis [26] = assay: Bactericidal activity against Enterococcus faecalis ATCC 29212 incubated for 90 mins by serial dilution assay; assay type: functional
Salmonella typhimurium [27] = assay: Bactericidal activity against Salmonella enterica serovar typhimurium SL1344 incubated for 90 mins by serial dilution assay; assay type: functional, Salmonella enterica subsp. enterica serovar Typhimurium
Escherichia coli [28] = assay: Induction of morphological changes in Escherichia coli ATCC 25922 assessed as membrane collapse at 0.5 to 2 times MIC incubated for 90 mins by Helium ion microscopy; assay type: functional, organism-based
Escherichia coli [29] = assay: Induction of morphological changes in Escherichia coli ATCC 25922 assessed as leakage in intracellular contents at 0.5 to 2 times MIC incubated for 90 mins by Helium ion microscopy; assay type: functional, organism-based
Lipid bilayer = assay: Induction of membrane disruption in Gram-negative bacterial cell membrane mimic POPE:POPG(7:3) large unilamellar vesicle assessed as carboxyfluorescein leakage by fluorescence analysis
Escherichia coli [30] = assay: Induction of morphological changes in Escherichia coli ATCC 25922 assessed as leakage in intracellular contents at 0.5 times MIC incubated for 90 mins by Helium ion microscopy; assay type: functional, organism-based
HEK293 [31] = assay: Cytotoxicity against human HEK293 cells assessed as increase in LDH release at 31.25 ug/ml incubated for 2 hrs by LDH assay; assay type: toxicity, cell-based; settings: hek293, 2 h, dose 31.25 µg/ml
HEK293 [32] = assay: Cytotoxicity against human HEK293 cells assessed as decrease in live cells at 15.6 ug/ml incubated for 2 hrs by MTS assay; assay type: toxicity, cell-based; settings: hek293, 2 h, dose 15.6 µg/ml
Staphylococcus aureus [33] = assay: Induction of morphological changes in Staphylococcus aureus ATCC 29213 incubated for 90 mins by Helium ion microscopy; assay type: functional, organism-based
Cell membrane [34] = assay: Induction of inner membrane damage in Staphylococcus aureus ATCC 29213 assessed disruption of membrane integrity at 0.5 to 256 ug/ml and measured after 90 mins by propidium iodide staining based flow cytometry; assay type: subcellular; settings: dose 0.5-256 µg/ml
Escherichia coli [35] = assay: Induction of morphological changes in Escherichia coli ATCC 25922 at 0.5 times MIC incubated for 90 mins by Helium ion microscopy; assay type: functional, organism-based
[36] = Salmonella enterica subsp. enterica serovar Typhimurium

CC[C@H](C)[C@H](NC(=O)[C@H](CO)NC(=O)[C@H](CCCCN)NC(=O)[C@H](Cc1c[nH]c2ccccc12)NC(=O)[C@H](CC(C)C)NC(=O)[C@H](C)N)C(=O)N[C@@H](CC(C)C)C(=O)N[C@@H](CCCCN)C(=O)N[C@@H](CC(N)=O)C(=O)N[C@H](C(=O)NCC(=O)N[C@@H](CCCCN)C(=O)N[C@@H](C)C(=O)N[C@@H](C)C(=O)NCC(=O)N[C@@H](CCCCN)C(=O)N[C@@H](C)C(=O)N[C@H](C(=O)N[C@@H](CC(C)C)C(=O)O)C(C)C)C(C)C (H-ALWKSILKNVGKAAGKAVL-OH)
MIC (Enterococcus faecalis [1]; ATCC 29212, 1.5 h): 250 µg/mL (≈ 127 µM)
Activity (Cell membrane [2]): Active
Activity (Cell membrane [3]): Active
Activity (Cell membrane [4]): 40%
Activity (HEK293 [5]): Toxic
Activity (Cell membrane [6]): 40%
MIC (Salmonella typhimurium [7]; SL1344, 1.5 h): 250 µg/mL (≈ 127 µM)
Activity (Cell membrane [8]): 30%
MIC (Staphylococcus aureus [9]; ATCC 33591, 1.5 h): > 125 µg/mL
MBC (Escherichia coli [10]; BAA3051, 1.5 h): 31.3 µg/mL (≈ 15.9 µM)
MBC (Staphylococcus aureus [11]; ATCC 29213, 1.5 h): > 125 µg/mL
Activity (Cell membrane [12]): Active
Activity (HEK293 [13]): Toxic
Activity (Staphylococcus aureus [14]): Active
Activity (Cell membrane [15]): Active
MIC (Escherichia coli [16]; ATCC 25922, 1.5 h): 31.3 µg/mL (≈ 15.9 µM)
MIC (Escherichia coli [17]; BAA3051, 1.5 h): 31.3 µg/mL (≈ 15.9 µM)
MIC (Staphylococcus aureus [18]; ATCC 29213, 1.5 h): 62.5 µg/mL (≈ 31.8 µM)
Activity (Cell membrane [19]): Active
MBC (Staphylococcus aureus [20]; ATCC 33591, 1.5 h): > 250 µg/mL
Activity (Cell membrane [21]): 40%
Activity (Cell membrane [22]): Active
Activity (Cell membrane [23]): 40%
MBC (Escherichia coli [24]; ATCC 25922, 1.5 h): 31.3 µg/mL (≈ 15.9 µM)
Activity (Cell membrane [25]): 30%
MBC (Enterococcus faecalis [26]; ATCC 29212, 1.5 h): 250 µg/mL (≈ 127 µM)
MBC (Salmonella typhimurium [27]; SL1344, 1.5 h): 250 µg/mL (≈ 127 µM)

CC[C@H](C)[C@H](NC(=O)[C@H](CCCCN)NC(=O)[C@@H](NC(=O)[C@H](Cc1ccccc1)NC(=O)[C@H](C)NC(=O)[C@H](CCCCN)NC(=O)CNC(=O)[C@H](Cc1ccccc1)NC(=O)[C@H](CCCCN)NC(=O)[C@H](CCCCN)NC(=O)[C@H](C)NC(=O)[C@H](CCCCN)NC(=O)[C@H](CCCCN)NC(=O)[C@H](CC(C)C)NC(=O)[C@H](Cc1ccccc1)NC(=O)[C@@H](N)CCCCN)C(C)C)C(=O)N[C@@H](CC(C)C)C(=O)O (H-KFLKKAKKFGKAFVKIL-OH)
MIC (Enterococcus faecalis [1]; ATCC 29212, 1.5 h): 31.3 µg/mL (≈ 15.7 µM)
Activity (Cell membrane [3]): Active
Activity (Escherichia coli [28]): Active
Activity (Cell membrane [4]): 40%
Activity (Cell membrane [6]): 40%
MIC (Salmonella typhimurium [7]; SL1344, 1.5 h): 7.8 µg/mL (≈ 3.91 µM)
Activity (Escherichia coli [29]): Active
Activity (Lipid bilayer): 20%
Activity (Cell membrane [8]): 30%
MIC (Staphylococcus aureus [9]; ATCC 33591, 1.5 h): > 125 µg/mL
Activity (Escherichia coli [30]): Active
MBC (Escherichia coli [10]; BAA3051, 1.5 h): 7.8 µg/mL (≈ 3.91 µM)
MBC (Staphylococcus aureus [11]; ATCC 29213, 1.5 h): 31.3 µg/mL (≈ 15.7 µM)
Activity (Cell membrane [12]): Active
Activity (HEK293 [31]): Toxic
Activity (Staphylococcus aureus [14]): Active
MIC (Escherichia coli [16]; ATCC 25922, 1.5 h): 15.6 µg/mL (≈ 7.82 µM)
MIC (Escherichia coli [17]; BAA3051, 1.5 h): 7.8 µg/mL (≈ 3.91 µM)
MIC (Staphylococcus aureus [18]; ATCC 29213, 1.5 h): 15.6 µg/mL (≈ 7.82 µM)
Activity (Cell membrane [19]): Active
MBC (Staphylococcus aureus [20]; ATCC 33591, 1.5 h): > 125 µg/mL
Activity (HEK293 [32]): Toxic
Activity (Staphylococcus aureus [33]): Active
Activity (Cell membrane [21]): 40%
Activity (Cell membrane [22]): Active
Activity (Cell membrane [23]): 40%
MBC (Escherichia coli [24]; ATCC 25922, 1.5 h): 15.6 µg/mL (≈ 7.82 µM)
Activity (Cell membrane [25]): 30%
MBC (Enterococcus faecalis [26]; ATCC 29212, 1.5 h): 125 µg/mL (≈ 62.7 µM)
MBC (Salmonella typhimurium [27]; SL1344, 1.5 h): 7.8 µg/mL (≈ 3.91 µM)
Activity (Cell membrane [34]): Active
Activity (Escherichia coli [35]): Active

GENTAMICIN
MIC (Enterococcus faecalis [1]): 3.9 µg/mL
MIC (Salmonella typhimurium [7]; [36]): 12.5 µg/mL
MIC (Staphylococcus aureus [9]): 7.8 µg/mL
MBC (Escherichia coli [10]): 1.9 µg/mL
MBC (Staphylococcus aureus [11]): 6.25 µg/mL
MIC (Escherichia coli [16]): 0.9 µg/mL
MIC (Escherichia coli [17]): 1.9 µg/mL
MIC (Staphylococcus aureus [18]): 3.9 µg/mL
MBC (Staphylococcus aureus [20]): 62.5 µg/mL
MBC (Escherichia coli [24]): 6.25 µg/mL
MBC (Enterococcus faecalis [26]): 31.3 µg/mL
MBC (Salmonella typhimurium [27]; [36]): 12.5 µg/mL
